Literature values as cited in patent US20100113581A1, “COMBINATION THERAPIES FOR THE TREATMENT OF OBESITY” (priority 2008, published 2010).

How the values were obtained:
[1] = published studies of weight loss medications
[2] = cyclodextrin derivatives

Compound | weight loss of body weight for drug compared with placebo [1] | solubility in water [2]
CCCCCCCCCCC[C@@H](C[C@@H]1OC(=O)[C@H]1CCCCCC)OC(=O)[C@H](CC(C)C)NC=O [orlistat] | about 5% | –
CCN[C@@H](C)Cc1cccc(C(F)(F)F)c1 [dexfenfluramine] | about 5% | –
G-2-beta-cyclodextrin | – | 147 % (w/v)
triacetyl-beta-cyclodextrin | – | insoluble
CC(C)CC(N(C)C)C1(c2ccc(Cl)cc2)CCC1 (centres unmarked) [sibutramine] | about 5% | –
